Measured values taken from paper PMC4823038 (Oncotarget, 2015).
Like-named read-outs stand apart in the source and are kept apart here.

Assays:
[1] = Pharmacokinetics in BALB/c mice; format: in vivo; details: for bioavailability: BALB/c, 10mg/kg p.o. vs i.v., read-out: oral bioavailability (F)
Procedure: (§1) Human tumor xenografts were established s.c. in female […]) athymic mice and treated as previously described. […] Compounds were extracted from whole blood, plasma and tissue homogenates with methanol-containing internal standards using established protocols. Drug concentrations were determined using liquid chromatography/tandem mass spectrometry (LC/MS-MS) and pharmacokinetics were calculated using Pharsight WinNonLin software (version 5.2.1) as previously described.

[2] = Tumor drug concentration in HT29 xenografts; format: in vivo, mice; details: female, CRTac:Ncr-Fox1(nu) athymic, mouse, oral, 24h following 12.5mg/kg p.o., with gemcitabine
Procedure: as §1

SW620 = experiment: Mitosis induction assay (MIA), abrogation of etoposide-induced G2 checkpoint; format: cell-based; details: Homo sapiens, SW-620, mean±SD
Procedure: (§2) Assays were performed as described. […] Inhibition of intracellular CHK1 activity was measured using a cell based ELISA for the abrogation of an etoposide induced G2 checkpoint (mitosis induction assay, MIA [24]). The IC50 for G2 checkpoint abrogation (MIA) was determined in the presence of nocodazole using UCN01 as a positive control. […] PI values > 1 indicate potentiation of the genotoxic activity.

HT29 = experiment: as above; format: cell-based; details: Homo sapiens, HT-29, mean±SD
Procedure: as §2

Calu6 = experiment: as above; format: cell-based; details: Homo sapiens, Calu-6, mean±SD
Procedure: as §2

[3] = system: pS296 CHK1 in Calu6 xenograft tumors; experiment: PD biomarkers in Calu6 xenograft tumors (western blot); format: in vivo, mice; details: Calu6 xenografts, 6h after last dose of CCT245737 150mg/kg p.o.
Procedure: (§3) Western blotting was carried out as described. ELISA assays for pS296 CHK1 and total CHK1 were developed and validated for use in vitro and in tumor homogenates. Tumor samples for ELISA and western blotting were lysed in CHAPS buffer (1% CHAPS in 150mM NaCl, 50mM Tris-HCl pH 8.0, 1mM EDTA, 0.2mM PMSF and 1:50 Sigma Phosphatase inhibitors 2 and 3 and 1:100 Sigma protease cocktail) and immunoblotted. ELISA assays were based on commercially available kits with modifications (Cell Signalling Technologies). For pS296 CHK1 detection the commercial pS317 CHK1 antibody was replaced with a pS296 CHK1 antibody (Cell Signalling Technology). Xenograft tumor homogenate was added in duplicate to 96 well plates (100μl containing 40ug protein) and quantification of the colorimetric readout was determined at 450nm using a PerkinElmer 2103 EnVision Multilabel plate reader.

[4] = system: pS296 CHK1 in HT29 colon tumor cells; experiment: Western blot of gemcitabine-induced biomarkers in cells; format: cell-based, human; details: added to gemcitabine
Procedure: as §3

[5] = system: pS296 CHK1 in HT29 tumor xenografts; experiment: PK-PD biomarker study in HT29 tumor xenografts; format: in vivo, mice; details: 50 or 100mg/kg p.o. 24h after gemcitabine 100mg/kg i.v.; P < 0.05
Procedure: as §3

[6] = system: HT29 human colon tumor xenografts; experiment: Antitumor study, HT29 human colon tumor xenografts; details: HT29
Procedure: (§4) Compound tolerability and pharmacokinetic investigations were carried out in female BALB/c mice (Charles River). Human tumor xenografts were established s.c. in female CRTac:Ncr-Fox1(nu) athymic mice and treated as previously described. […] Initial treatment groups contained from 6 to 10 mice and animals were inspected daily and tumor size and volume measured every 2 or 3 days. Tumor volume and growth delay were determined as previously described.

[7] = Permeability across CaCo2 cell monolayer; format: in vitro ADME
[8] = system: SW620 colon cancer xenografts; experiment: Antitumor study, SW620 colon cancer xenografts; format: in vivo, mice
Procedure: as §4

124 human kinases = experiment: 33P radiometric kinase profiling; format: biochemical; details: 10μM, 124 kinases, ATP at Km
[9] = system: cellular CHK1 activity, four cell lines; experiment: MIA, range over four cell lines; format: cell-based; details: Homo sapiens, read-out: IC50 for cellular CHK1 inhibition (MIA), range
Procedure: as §2

CDK1 = CDK1 (Homo sapiens, UniProt P06493); experiment: CDK1 kinase IC50 determination (DELFIA / 33P radiometric); format: biochemical
Procedure: (§5) Other kinase IC50 determinations for CHK2 and FLT3 were performed using a commercial assay (Z'-Lyte, Invitrogen) or in-house with recombinant human CHK1 on a LabChip® EZ Reader II (PerkinElmer) or CDK1 in a DELFIA assay (PerkinElmer).

[10] = system: four human tumor cell lines; experiment: SRB cytotoxicity, range over four cell lines; format: cell-based; details: read-out: GI50 single-agent, range
[11] = system: Calu6 RAS mutant NSCLC human tumor xenograft; experiment: Antitumor study, Calu6 RAS mutant NSCLC xenografts; format: in vivo, mice
Procedure: Compound tolerability and pharmacokinetic investigations were carried out in female BALB/c mice (Charles River). Human tumor xenografts were established s.c. in female CRTac:Ncr-Fox1(nu) athymic mice and treated as previously described [24, 28]. […] Initial treatment groups contained from 6 to 10 mice and animals were inspected daily and tumor size and volume measured every 2 or 3 days. Tumor volume and growth delay were determined as previously described [28].

CHK2 = target: T1, CHK2 (Homo sapiens, UniProt O96017); experiment: CHK2 kinase IC50 determination (Z'-Lyte); format: biochemical
T1 construct: purchased Invitrogen
Procedure: as §5

Plasma protein binding = format: in vitro ADME; details: mouse, nude mice
[12] = system: HT29 colon carcinoma cells; experiment: Cell cycle analysis (BrdU/PI); format: cell-based, human
From the text: Cell cycle analysis using propidium iodide and bromodeoxyuridine staining was as described.

[13] = system: Eμ-Myc driven B-cell lymphoma; experiment: Eμ-Myc driven transgenic mouse transplant model of B-cell lymphoma; format: in vivo, mice; details: 150mg/kg p.o. once daily for 9 days
From the text: Transgenic Eμ-Myc mice which develop aggressive infiltrating lymphoma were established and monitored as previously described. To generate transgenic Eμ-Myc driven lymphoma allografts, tumor cells from 3 separate tumors were harvested, cells counted and injected via a tail vein. Six mice were set up per tumor to provide 3 control and 3 treated animals, giving a maximum of 9 mice per treatment group. Animals were monitored daily and continuously using RFID transponders to measure temperature, activity and water consumption as previously described. […] Bone marrow cellularity was also determined to check for tumor cell involvement. All mice were handled in compliance with local and national animal welfare guidelines.

Eμ-Myc driven lymphoma = system: Eμ-Myc driven lymphoma; parameters: method as in PMID 22120667; details: 5mg/kg × 9 days; cited from earlier work
[14] = Antitumor study, HT29 human colon tumor xenografts; details: female, mouse, in vivo, iv
Procedure: as §4

Sequence of CDK1 (P06493 whole entry): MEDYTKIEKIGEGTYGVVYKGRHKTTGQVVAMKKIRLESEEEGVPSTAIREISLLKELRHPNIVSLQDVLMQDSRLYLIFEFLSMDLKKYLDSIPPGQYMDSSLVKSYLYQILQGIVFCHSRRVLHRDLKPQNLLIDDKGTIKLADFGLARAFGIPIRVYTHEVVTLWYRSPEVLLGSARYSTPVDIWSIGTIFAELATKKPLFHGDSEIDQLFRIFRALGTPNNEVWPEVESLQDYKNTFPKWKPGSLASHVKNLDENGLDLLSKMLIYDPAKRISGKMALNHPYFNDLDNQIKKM
Sequence of CDK1 (P14635 whole entry partner): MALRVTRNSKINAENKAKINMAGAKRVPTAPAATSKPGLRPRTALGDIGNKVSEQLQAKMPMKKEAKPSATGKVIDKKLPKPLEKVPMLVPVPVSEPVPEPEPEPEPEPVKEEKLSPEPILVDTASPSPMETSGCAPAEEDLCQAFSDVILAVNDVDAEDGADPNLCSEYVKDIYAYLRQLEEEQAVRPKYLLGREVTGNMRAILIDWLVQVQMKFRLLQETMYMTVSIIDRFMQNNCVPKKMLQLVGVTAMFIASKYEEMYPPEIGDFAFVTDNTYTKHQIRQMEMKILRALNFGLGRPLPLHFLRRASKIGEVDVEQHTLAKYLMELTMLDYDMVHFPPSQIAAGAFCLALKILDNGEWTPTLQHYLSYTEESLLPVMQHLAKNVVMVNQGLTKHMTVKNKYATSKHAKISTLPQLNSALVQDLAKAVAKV
T1 sequence (O96017 whole entry): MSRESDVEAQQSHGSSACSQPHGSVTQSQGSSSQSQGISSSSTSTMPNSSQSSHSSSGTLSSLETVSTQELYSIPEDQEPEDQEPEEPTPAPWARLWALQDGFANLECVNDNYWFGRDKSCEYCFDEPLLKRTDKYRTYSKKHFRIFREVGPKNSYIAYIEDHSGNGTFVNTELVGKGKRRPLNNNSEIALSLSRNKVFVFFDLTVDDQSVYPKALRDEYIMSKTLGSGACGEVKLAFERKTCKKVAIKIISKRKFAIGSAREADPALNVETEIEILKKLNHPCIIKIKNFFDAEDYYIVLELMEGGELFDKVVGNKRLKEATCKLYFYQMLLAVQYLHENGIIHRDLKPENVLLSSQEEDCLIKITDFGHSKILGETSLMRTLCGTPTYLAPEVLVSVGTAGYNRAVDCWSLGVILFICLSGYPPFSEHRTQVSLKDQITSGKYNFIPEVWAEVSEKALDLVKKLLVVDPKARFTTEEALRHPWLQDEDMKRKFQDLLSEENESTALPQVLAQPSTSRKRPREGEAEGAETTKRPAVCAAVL

Compound: N#Cc1cnc(Nc2cc(NC[C@H]3CNCCO3)c(C(F)(F)F)cn2)cn1 [CCT245737, (R)-5-((4-((morpholin-2-ylmethyl)amino)-5-(trifluoromethyl)pyridin-2-yl)amino)pyrazine-2-carbonitrile]
- kinetics in whole blood (AUC vs dose) ([1]; BALB/c mice): linear kinetics
- plasma clearance ([1]; BALB/c mice, 10mg/kg i.v.): 35 mL/min/kg
- volume of distribution ([1]; BALB/c mice, 10mg/kg i.v.): 0.19 L
- half-life ([1]; BALB/c mice, 10mg/kg i.v., plasma): 2.86 h
- bioavailability ([1]; female, plasma, oral, mouse): 100%
- bioavailability ([1]; female, plasma, po, mouse): 105%
- Kp ([1]; female, mouse, spleen, other: both routes of administration (i.v. and p.o.), 10 mg/kg, BALB/c mice, both routes of administration, read-out: spleen concentration relative to plasma): 10 to 25
- concentration at 24 h [2]: ≥ 3000 nM
- IC50 (SW620): 220 ± 47 nM
- IC50 (HT29): 30 ± 12 nM
- IC50 (Calu6): 84 ± 7 nM
- gemcitabine + carboplatin induced pS296 CHK1 signal in tumor [3]: completely abolished
- concentration causing marked loss of pS296 signal [4]: ≥ 0.5 μM
- concentration giving complete inhibition of pS296 signal [4]: ≥ 2 μM
- gemcitabine-induced pS296 CHK1 signal in tumor [5]: significantly reduced
- growth delay ([6]; alone, 150mg/kg p.o. days 1,2,5,6,9,10 (irinotecan study), mean±SD): 1.0 ± 1.0 days
- growth delay ([6]; alone, 150mg/kg p.o. days 1,2,8,9,15,16, mean±SD): 0.3 ± 3.4 days
- Papp ([7]; human, Caco-2, CaCo2 cell monolayer, read-out: cell permeability Pe): 25 ×10⁻⁶ cm/s
- active efflux by PGP ([7]; no asymmetry apical > basal or basal > apical): not a substrate for active efflux by PGP
- body weight loss ([8]; combination with gemcitabine, day 9): 4.3%
- number of kinases (including CHK1) with > 80% inhibition (124 human kinases): 12 kinases
- IC50 [9]: 30 to 220 nM
- IC50 (CDK1): 1260 to 2440 nM
- GI50 [10]: 410 to 5400 nM
- increase in tumor growth delay ([11]; CCT245737 150mg/kg p.o. added to gemcitabine 100mg/kg i.v. + carboplatin 5mg/kg i.p., P < 0.001): 9 days
- weight loss ([11]; combination with gemcitabine + carboplatin, nadir on day 3): 2%
- IC50 (CHK2): 9030 nM
- fraction unbound at 10 μM (Plasma protein binding): 0.244
- effect on etoposide-induced G2/M block ([12]; after etoposide 50μM × 1h, increasing concentrations, 24h): abrogated this G2/M block
- effect on cell cycle distribution, alone ([12]; up to 0.5μM for 24h): minimal effects
- effects on normal tissues (lung, bone marrow, kidney) [13]: minimal effects
- tolerability (body weights) [13]: well tolerated
- weight of inguinal, brachial/axillary and mesenteric lymph nodes vs vehicle ([13]; P < 0.05): significantly reduced
- spleen weight ([13]; p < 0.01): increased significantly

Compound: CN[C@@H]1C[C@H]2O[C@@](C)([C@@H]1OC)n1c3ccccc3c3c4c(c5c6ccccc6n2c5c31)C(=O)N[C@H]4O [UCN01]
- antitumor activity in Eμ-Myc model (Eμ-Myc driven lymphoma): clear evidence of tumor growth inhibition
- blood cell count (Eμ-Myc driven lymphoma): decreased blood cell count

Compound: Nc1ccn([C@@H]2O[C@H](CO)[C@@H](O)C2(F)F)c(=O)n1 [gemcitabine]
- growth delay ([6]; alone, 100mg/kg i.v. days 0,7,14, mean±SD (Figure 3A)): -0.6 ± 2.7 days
- growth delay ([6]; gemcitabine alone at the MTD of 200mg/kg i.v. (Figure 3B)): 6 days
- growth delay ([6]; gemcitabine alone, fixed dose 100mg/kg i.v. (Figure 3B)): 3 days
- MTD [14]: 200 mg/kg
- growth delay ([8]; gemcitabine alone 100mg/kg i.v. days 0,4,8): 1.5 ± 2.3 days

Compound: CCc1c2c(nc3ccc(OC(=O)N4CCC(N5CCCCC5)CC4)cc13)-c1cc3c(c(=O)n1C2)COC(=O)[C@]3(O)CC [irinotecan]
- growth delay ([6]; alone, 25mg/kg i.p. days 0,4,8, mean±SD, n = 6): 6.2 ± 4.6 days
